Among the data in US6838565B2, “Substituted benzoic acid amides, their preparation and their use as pharmaceutical compositions” (Boehringer Ingelheim Pharma GmbH & Co. KG, priority 2002, dated 2005) are IC50 values, retold here.

Usually IC50 stands for the concentration at which inhibition is half-maximal.

The test concerns the target T1, human factor Xa (Homo sapiens, UniProt P00742).
T1 construct: released from the colourless chromogenic substrate by human factor Xa; purchased Roche
As to the kind of experiment: Inhibition of factor Xa, enzyme-kinetic measurement with chromogenic substrate (Chromozym X). As to conditions: pNA release from Chromozym X 200 μMol/l, 405 nm, 37° C., pH 8.0, factor Xa 0.175 U/ml. The format is biochemical. Here is the method: Method: Enzyme-kinetic measurement with chromogenic substrate. The quantity of p-nitroaniline (pNA) released from the colourless chromogenic substrate by human factor Xa is determined photometrically at 405 nm. It is proportional to the activity of the enzyme used. The inhibition of the enzyme activity by the test substance (in relation to the solvent control) is determined at various concentrations of test substance and from this the IC50 is calculated, as the concentration which inhibits the factor Xa used by 50%.
• Tris(hydroxymethyl)-aminomethane buffer (100 mmol) and sodium chloride (150 mmol), pH 8.0 • Factor Xa (Roche), spec. activity: 10 U/0.5 ml, final concentration: 0.175 U/ml for each reaction mixture • Substrate Chromozym X (Roche), final concentration: 200 μMol/l for each reaction mixture • Test substance: final concentration 100, 30, 10, 3, 1, 0.3, 0.1, 0.03, 0.01, 0.003, 0.001 μMol/l Procedure
10 μl of a 23.5-times concentrated starting solution of the test substance or solvent (control), 175 μl of tris(hydroxymethyl)-aminomethane buffer and 25 μl of a 1.65 U/ml Factor Xa working solution are incubated for 10 minutes at 37° C. After the addition of 25 μl of Chromozym X working solution (1.88 μmol/l) the sample is measured in a photometer (SpectraMax 250) at 405 nm for 150 seconds at 37° C.
• 1. […]

Counter-ions that a name gives are not always drawn.

T1 sequence (P00742 235-488 limits assumed): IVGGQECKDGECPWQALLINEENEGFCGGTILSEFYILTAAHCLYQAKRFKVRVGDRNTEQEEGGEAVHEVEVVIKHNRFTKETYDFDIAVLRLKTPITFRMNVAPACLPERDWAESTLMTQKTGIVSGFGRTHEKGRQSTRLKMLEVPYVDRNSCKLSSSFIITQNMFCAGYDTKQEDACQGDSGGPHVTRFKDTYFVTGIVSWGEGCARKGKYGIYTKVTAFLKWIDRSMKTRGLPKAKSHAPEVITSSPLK
T1 sequence (P00742 41-179 partner limits assumed): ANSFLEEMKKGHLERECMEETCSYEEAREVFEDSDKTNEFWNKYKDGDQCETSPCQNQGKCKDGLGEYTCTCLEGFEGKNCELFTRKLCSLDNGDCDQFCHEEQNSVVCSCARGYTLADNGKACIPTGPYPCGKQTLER

`Cc1cc(C(=O)NC(Cc2nnn[nH]2)c2cccc(C(=N)N)c2)ccc1C(=O)N1CC=CC1` (centres unmarked) [(1), N-[1-(3-amidino-phenyl)-2-(1H-tetrazol-5-yl)-ethyl]-4-(2,5-dihydro-pyrrol-1-yl-carbonyl)-3-methyl-benzamide-hydrochloride]: the half-maximal inhibitory concentration (IC50) was 0.008 µM.

`Cc1cc(C(=O)NC(Cc2nnn[nH]2)c2cccc(C(=N)N)c2)ccc1C(=O)N1CCCC1` (centres unmarked) [(2), N-[1-(3-amidino-phenyl)-2-(1H-tetrazol-5-yl)-ethyl]-3-methyl-4-(pyrrolidin-1-carbonyl)-benzamide-hydrochloride] yielded an IC50 of 0.026 µM.
